Biological target: T1, FLK-1 receptor (Mus musculus, UniProt P35918)
T1 construct: expressed in transfected cells; host or cells: NIH3T3 C7#3
Experiment: FLK-1 ELISA (kinase activity of the FLK-1 receptor in FLK-1/NIH3T3 cells, VEGF stimulated)
Assay type: cell-based
In short: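 NIH3T3 C7#3 cells expressing FLK-1 were seeded at 25.000 cells/well, serum-starved overnight in 0.1% FBS, then treated with compound for two hours at 37°C (final DMSO 0.5%) before VEGF stimulation. Receptor was captured on anti-rabbit IgG-coated ELISA plates bearing affinity-purified anti-FLK-1 antiserum.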

T1 sequence (P35918 20-1345): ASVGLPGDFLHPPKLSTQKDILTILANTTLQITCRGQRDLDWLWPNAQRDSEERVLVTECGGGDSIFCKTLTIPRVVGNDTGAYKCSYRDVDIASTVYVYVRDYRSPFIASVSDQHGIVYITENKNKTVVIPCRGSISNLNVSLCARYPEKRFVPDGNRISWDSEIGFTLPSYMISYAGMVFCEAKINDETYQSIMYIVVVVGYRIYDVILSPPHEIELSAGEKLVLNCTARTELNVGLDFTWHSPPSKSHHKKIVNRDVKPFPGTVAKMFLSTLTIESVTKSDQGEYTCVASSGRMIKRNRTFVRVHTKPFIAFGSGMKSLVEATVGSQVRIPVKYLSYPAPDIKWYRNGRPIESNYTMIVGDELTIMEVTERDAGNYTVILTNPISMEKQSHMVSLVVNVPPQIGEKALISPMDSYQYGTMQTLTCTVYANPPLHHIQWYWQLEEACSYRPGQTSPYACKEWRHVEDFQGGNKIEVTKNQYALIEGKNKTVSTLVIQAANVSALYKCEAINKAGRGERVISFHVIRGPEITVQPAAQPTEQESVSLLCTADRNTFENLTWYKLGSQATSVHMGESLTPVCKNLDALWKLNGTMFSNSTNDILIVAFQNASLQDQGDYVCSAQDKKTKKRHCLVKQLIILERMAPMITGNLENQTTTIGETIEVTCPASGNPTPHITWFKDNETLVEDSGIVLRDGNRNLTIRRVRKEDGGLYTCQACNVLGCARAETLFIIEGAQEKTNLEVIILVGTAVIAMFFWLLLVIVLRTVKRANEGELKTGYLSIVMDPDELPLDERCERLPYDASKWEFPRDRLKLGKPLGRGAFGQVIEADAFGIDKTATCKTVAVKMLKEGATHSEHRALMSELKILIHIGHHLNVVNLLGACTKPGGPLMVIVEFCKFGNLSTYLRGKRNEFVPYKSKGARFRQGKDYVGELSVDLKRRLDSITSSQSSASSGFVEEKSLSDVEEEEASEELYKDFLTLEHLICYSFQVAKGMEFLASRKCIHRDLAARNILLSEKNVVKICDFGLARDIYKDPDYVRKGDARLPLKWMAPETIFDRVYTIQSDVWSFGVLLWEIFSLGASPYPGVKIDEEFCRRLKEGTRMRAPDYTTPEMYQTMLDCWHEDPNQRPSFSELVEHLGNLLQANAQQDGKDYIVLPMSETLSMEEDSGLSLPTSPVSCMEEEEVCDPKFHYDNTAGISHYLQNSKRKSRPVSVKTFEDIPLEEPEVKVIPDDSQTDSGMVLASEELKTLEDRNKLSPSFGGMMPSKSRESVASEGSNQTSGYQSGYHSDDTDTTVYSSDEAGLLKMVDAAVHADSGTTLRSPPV

In order of rising “Fik Kinase %Inhibition” value:
1. CCCCN(CCCC)c1ccc(C=C2C(=O)Nc3ccc(I)cc32)cc1 [10722/B10]  -0.9%
2. CCCCN(CCCC)c1ccc(C=C2C(=O)Nc3ccc(S(=O)(=O)Nc4ccc(C(F)(F)F)cc4)cc32)cc1 [10722/E10]  3.1%
3. O=C1Nc2ccc(I)cc2C1=Cc1ccc(C(F)(F)F)cc1 [10722/B11]  5.2%
4. CCCCN(CCCC)c1ccc(C=C2C(=O)Nc3ccc(S(=O)(=O)NC)cc32)cc1 [10722/D10]  8.2%
5. CNS(=O)(=O)c1ccc2c(c1)C(=Cc1ccc(C(F)(F)F)cc1)C(=O)N2 [10722/D11]  9.6%
6. O=C1Nc2ccc(S(=O)(=O)Nc3ccc(C(F)(F)F)cc3)cc2C1=Cc1c(O)cc(O)cc1O [10722/E03]  10.7%
7. CC(C)(C)c1cc(C=C2C(=O)Nc3ccc(I)cc32)cc(Cl)c1O [10722/B08]  11.2%
8. CNS(=O)(=O)c1ccc2c(c1)C(=Cc1cc(C)c(O)c(C)c1)C(=O)N2 [10722/D07]  14.1%
9. CNS(=O)(=O)c1ccc2c(c1)C(=Cc1csc([N+](=O)[O-])c1)C(=O)N2 [10722/D09]  14.7%
10. CNS(=O)(=O)c1ccc2c(c1)C(=Cc1c(O)cc(O)cc1O)C(=O)N2 [10722/D03]  15.0%
11. O=C1Nc2ccc(S(=O)(=O)Nc3ccc(C(F)(F)F)cc3)cc2C1=Cc1ccc(C(F)(F)F)cc1 [10722/E11]  15.3%
12. O=C1Nc2ccc(S(=O)(=O)Nc3ccc(C(F)(F)F)cc3)cc2C1=Cc1csc([N+](=O)[O-])c1 [10722/E09]  16.2%
13. CC(C)(C)c1cc(C=C2C(=O)Nc3ccc(S(=O)(=O)Nc4ccc(C(F)(F)F)cc4)cc32)cc([N+](=O)[O-])c1O [10722/E02]  17.0%
14. CC(C)(C)c1cc(C=C2C(=O)Nc3ccc(S(=O)(=O)Nc4ccc(C(F)(F)F)cc4)cc32)cc(Cl)c1O [10722/E08]  18.6%
15. O=C1Nc2ccc(S(=O)(=O)Nc3ccc(C(F)(F)F)cc3)cc2C1=Cc1ccc(C(=O)O)cc1 [10722/E05]  19.2%
16. CNS(=O)(=O)c1ccc2c(c1)C(=Cc1ccc(C(=O)O)cc1)C(=O)N2 [10722/D05]  21.4%
17. O=C1Nc2ccc(S(=O)(=O)Nc3ccc(C(F)(F)F)cc3)cc2C1=Cc1ccc(F)cc1F [10722/E06]  21.4%
18. CNS(=O)(=O)c1ccc2c(c1)C(=Cc1ccc(F)cc1F)C(=O)N2 [10722/D06]  21.9%
19. CNS(=O)(=O)c1ccc2c(c1)C(=Cc1ccc([N+](=O)[O-])s1)C(=O)N2 [10722/D04]  23.5%
20. Cc1cc(C=C2C(=O)Nc3ccc(S(=O)(=O)Nc4ccc(C(F)(F)F)cc4)cc32)cc(C)c1O [10722/E07]  24.3%
21. CNS(=O)(=O)c1ccc2c(c1)C(=Cc1cc(Cl)c(O)c(C(C)(C)C)c1)C(=O)N2 [10722/D08]  29.1%
22. CNS(=O)(=O)c1ccc2c(c1)C(=Cc1cc([N+](=O)[O-])c(O)c(C(C)(C)C)c1)C(=O)N2 [10722/D02]  30.7%
23. O=C1Nc2ccc(S(=O)(=O)Nc3ccc(C(F)(F)F)cc3)cc2C1=Cc1ccc([N+](=O)[O-])s1 [10722/E04]  38.6%

From patent EP1247803A2, “Indolinone compounds suitable for modulation of protein kinases” (Sugen, Inc., priority 1996, dated 1998)
